Results: patent US20130123287A1, “CONTROL AGENT FOR SOFT ROT AND CONTROL METHOD FOR THE SAME” (ISHIHARA SANGYO KAISHA, LTD., priority 2010, published 2013)

Assays:
[1] = tested on: bacteria causing the soft rot (Erwinia carotovora); assay: Inhibition test of growth of bacteria causing soft rot, Reference Test Example 4; assay type: cell-based; conditions: for formed colonies (growth state), grade: PSA medium, 27 degrees Celsius, 2 days
From the text: An inhibition test of the growth of bacteria causing the soft rot was done, when a control agent was directly applied to the bacteria causing the soft rot. A given volume of each pesticide of kresoxim-methyl (STROBY DF [trade name] manufactured by BASF), thiophanate methyl (Topsin M WP [trade name], manufactured by Nippon Soda Co., Ltd), boscalid (Cantus DF [trade name] manufactured by BASF), procymidone (Sumilex WP [trade name] manufactured by Sumitomo Chemical Agro Co., Ltd.) and streptomycin (Mycin Wettable powder [trade name] manufactured by Hokko Chemical Industry Co., Ltd.) was added together with a suspension of the bacteria causing the soft rot (Erwinia carotovora) to a preliminarily dissolved PSA culture medium (55 degrees Celsius) for subsequent thorough agitation, which was then spread on a plate for culturing at 27 degrees Celsius for 2 days, to examine the growth state. Subsequently, the formed colonies were examined according to the following three grades. • +: at the same level as the level of non-treated lot. Plus or minus: apparently less than the colonies of the non-treated lot. • −: almost no colonies observed.

[2] = tested on: soft rot of Chinese cabbage; assay: Test for controlling soft rot of Chinese cabbage, Example 3 / Comparative Example 3 (field, cultivar Muso); assay type: in vivo; conditions: 500 g ai/10 a, 150 L/10 a sprayed onto planting holes before planting, 51 days after start
From the text: (§1) Frequency of the disease=[sigma(number of plants with the onset of the disease at each severity level*index of the onset of the disease)/(plants examined*4)]*100
(§2) Disease control value=[1-(frequency of the disease in the treated lot/frequency of the disease in the non-treated lot)]*100
(§3) • 0: No onset • 1: Onset in some of outer leaves (shippable) • 2: Onset in outer leaves and some of head leaves (by removing damaged parts, the resulting cabbage can be shipped as small cabbage but is ranked as grade B). • 3: Most of head leaves are inflicted with the onset of the disease or with severer damages (not shippable) • 4: Whole cabbage plant is inflicted with the onset of the disease and is dead.
442 g/l kresoxim-methyl (STROBY FLOWABLE [trade name], manufactured by BASF) was adjusted to 500 g ai/10a (0.5 g/m^2, 1131 ml Product/10a) as the amount of the active ingredient and to 150 L/10a as the volume of diluent water. […]
(§4) 51 days after the start of the tests, all the plants in each lot were examined about the severity level of the disease to assess the frequency of the disease and the disease control value. The frequency of the disease and the disease control value were determined in the same manner as described above. Because soft rot is a disease with damages hardly controlled, herein, even a chemical at the level C determined by the tests of the effects can practically be used.

[3] = tested on: soft rot of Chinese cabbage; assay: Test for controlling soft rot of Chinese cabbage, Example 4 / Comparative Example 4 (field, cultivar Ouraku 60); assay type: in vivo; conditions: 500 g ai/10 a, 150 L/10 a sprayed onto planting holes before planting, 49 days after start
From the text: as §1, §2, §3
442 g/lkresoxim-methyl (STROBY FLOWABLE [trade name], manufactured by BASF) was adjusted to 500 g ai/10a (0.5 g/m^2, 1131 ml Product/10a) as the amount of the active ingredient and to 150 L/10a as the volume of diluent water.
70% w/w thiophanate methyl (Topsin M WF [trade name], manufactured by Nippon Soda Co., Ltd.) was adjusted to 1000 g ai/10a (1 g/m^2, 1429 g Product/10a) as the amount of the active ingredient and to 150 L/10a as the volume of diluent water.
50% w/w boscalid (Cantus DF [trade name], manufactured by BASF) was adjusted to 500 g ai/10a (0.5 g/m^2; 1000 g Product/10a) as the amount of the active ingredient and to 150 L/10a as the volume of diluent water.
50% w/w procymidone (Sumilex WP [trade name], manufactured by Sumitomo Chemical Agro) was adjusted to 500 g ai/10a (0.5 g/m^2, 1000 g Product/10a) as the amount of the active ingredient and to 150 L/10a as the volume of diluent water.
400 g/l iprodione (Rovral 500 Aqua [trade name], manufactured by Bayer Crop Science Co., Ltd.) was adjusted to 500 g ai/10a (0.5 g/m^2, […] Product/10a) as the amount of the active ingredient and to 150 L/10a as the volume of diluent water.
200 g/l fludioxonil (Seibia FLOWABLE [trade name], manufactured by Syngenta Japan K.K.) was adjusted to 500 g ai/10a (0.5 g/m^2, 2500 ml Product/10a) as the amount of the active ingredient and to 150 L/10a as the volume of diluent water.
400 g/l mepanipyrim (Flupika PLOWABLE [trade name], manufactured by Nippon Soda Co., Ltd.) was adjusted to 500 g ai/10a (0.5 g/m^2, 1250 ml Product/10a) as the amount of the active ingredient and to 150 L/10a as the volume of diluent water.
After spreading an agricultural mulch-sheet and opening planting holes (diameter of about 5 cm) for permanent planting through the mulch-sheet, the spray solutions prepared as described above were sprayed onto the planting holes such that the amount of treated active ingredient of each spray solution was 0.5 g/m^2 (150 L per 10a), followed by air-drying; subsequently, seedlings of Chinese cabbage (cultivar: Ouraku 60) grown for 4 weeks in cell mold trays (128 holes/nursery box) were planted such that 30 seedlings were planted in each test lot having an area of 2.5 m^2 with two replications.
Preparation was performed by diluting a chemical solution (Agrimycin WP100 [trade name] manufactured by Pfizer) containing oxytetracycline at 1.5% and streptomycin sulfate salt at 18.8% with water to 1/1500.
In a field spread with the agricultural mulch-sheet, Chinese cabbage seedlings (cultivar: Ouraku 60) grown by the same method as in Example 4 were planted by the same method as in Example 4, for spraying the spray solution prepared above in (1) (at each spray volume of 300 L/10a) twice (28 days and 42 days after the planting of the seedlings) on the stems and leaves.
as §4, with “49” for “51”, “Herein, the” for “The”

Compound: CO/N=C(/C(=O)OC)c1ccccc1COc1ccccc1C [Kresoxim-methyl, methyl=(E)-methoxyimino[2-(o-tolyloxymethyl)phenyl]acetate]
- formed colonies (growth state), grade ([1]; 100 ppm active ingredient): +, +
- formed colonies (growth state), grade ([1]; 500 ppm active ingredient): +, +
- formed colonies (growth state), grade ([1]; 1000 ppm active ingredient): +, +
- inhibition of growth of Erwinia carotovora (in words) ([1]; active ingredient concentration of 1,000 ppm): never inhibited the growth
- Determination of effect [2]: C (C: Effective at low level (21 to 40 disease control value))
- Determination of effect [3]: C (C: Effective at low level (21 to 40 disease control value))
